Data taken from US20160009752A1, “[…]-OXIMINO-AMINOALKYLETHERS AND PROCESS FOR PREPARATION THEREOF, USEFUL AS ANTIDIABETIC AND […] AGENTS” (COUNCIL OF SCIENTIFIC & INDUSTRIAL RESEARCH, priority 2013, published 2016).
Like-named read-outs stand apart in the source and are kept apart here. Marks after values point to notes of the source that are not given here.

Legend:
[1] = test system: high fructose high fat fed Syrian golden hamsters; experiment: Antidyslipidemic activity in high fructose high fat fed Syrian golden hamsters; type: in vivo
Protocol: Male Syrian golden hamsters weighing 100-120 g were divided into groups each containing six animals. Dyslipidemia was produced by feeding the animals with high fructose high fat diet (60% fructose, 13% fat) for 30 to 40 days. Dyslipidemic hamsters were divided into groups based on their Serum lipid profile. The dyslipidemic animals had free access to HFD and water throughout the experimental period. The fine suspension of 14b was fed orally at a dose of 30 mg/kg for 7 days to the animals. Control animals were given drug vehicle only, served as sham treated control. Body weight and diet intake of each animal group were recorded daily to check the effect of the test samples on food intake and body weight of the animals. At the end of the experiment period i.e. on day 8th, the blood of each animal was withdrawn from retro-orbital plexus. After keeping the tubes for 15 min. in cold, Serum was separated. Biochemical analysis of Serum was performed on the same day for triglycerides (TG), total cholesterol (TC) and HDL-cholesterol and LDL-cholesterol contents using Cobas Integra 400 plus analyzer kits. All statistical analysis will be performed with Graph Pad Prism Software. One way ANOVA, all pair wise multiple comparison procedure (Tukey test). Data will be reported as mean±SEM.

[2] = Stability in simulated gastric and intestinal fluid; type: in vitro ADME
[3] = Stability studies in rat plasma samples; type: in vitro ADME; conditions: freeze-thaw cycle, bench top, dry residue and long term conditions
Description: The plasma of the rat treated with compound 14b was then processed for the stability study. The compound is found to be stable during freeze-thaw cycle, on the bench top, dry residue and long term conditions after extraction from plasma.

[4] = Pharmacokinetic study after oral and intravenous dose in rats; type: in vivo; parameters: Vd/F / Vd: unit not given here; conditions: rat
Description: In order to study its bioavailability, the method of its quantitative determination in plasma matrices in rat was developed and validated. […] The method was applied in the analysis of PK samples obtained after oral and intravenous dose administration in rats.

db/+ mice = experiment: OGTT in glucose loaded db/+ mice; type: in vivo
Protocol: Male C57BL6-db/+ mice (12-18 week old, 18-20 g body weight) were procured from National Animal Laboratory Centre (NALC) of Central Drug Research Institute (CDRI), Lucknow, India Animals were housed in polypropylene cages, in controlled environment (temperature 25±2° C.; humidity 50-60%; light 300 lux at floor level with regular 12 h light-12 h dark cycle; noise level 50 decibel; ventilation 10-15 air changes per hour). They were provided with a standard laboratory diet (Dayal Industry, Barabanki, Lucknow) unless stated otherwise and has free access to water. The mice having fasting blood glucose values varying between 65-80 mg/dl were finally included in this study. Animals were divided into groups consisting of six animals in each. Group one was considered as control group, where as the other groups were termed as experimental groups. Rats of experimental groups were given the desired doses of the test samples i.e. 5, 10, 20, 30 and 50 mg/kg body weight. The test samples were always prepared in the vehicle 1% gum acacia. An oral glucose load of 3.0 g/kg was given to the animals of all the groups 30 min post administration of the test samples/vehicle. Blood glucose levels of the animals of all the groups were again measured at 30, 60, 90 and 120 min post glucose load. Food (not water) was removed from the cages during the experimental period. […] Comparing the AUC of test sample treated to that of control group determined the percent improvement in OGTT by test sample which is termed as anti-hyperglycaemic activity. Statistical comparison between the groups was done by employing Students t test.

[5] = test system: sucrose challenged low dosed STZ-induced diabetic rats; experiment: Sucrose challenged low dosed streptozotocin-induced diabetic rats (STZ-S); type: in vivo, rat
Protocol: Fasting blood glucose level of each animal was measured after 48 hours post STZ injection by Glucostrips (Roche) using Glucometer (ACCU-CHEK II; Roche Diagnostics, USA) and animals showing blood glucose level above 280 mg/dl were considered as diabetic. The diabetic rats with fasting blood glucose values varying between […] were included in this study. Animals were divided into groups consisting of five animals in each. Group one was considered as a control group, where as the other groups were termed as experimental groups. […] The test samples and standard drug (Metformin) was always prepared in the vehicle 1% gum acacia. […] Food (not water) was removed from the cages during the experimental period. […] The percent decline in AUC of the experiment group compared to sham treated control group termed as % antihyperglycaemic activity. Statistical analysis between the groups was done by employing Students t test.

C/C(=N\OCCN1CCCCC1)[C@H]1CC[C@H]2[C@@H]3CC=C4C[C@@H](O)CC[C@]4(C)[C@H]3CC[C@]12C [Compound 14b, 3β-Hydroxy-pregna-5-en-20-one-O-(2-piperidin-1-yl-ethyl)-oxime]
melting point: 130 to 135 °C | enhancement of lipoprotein lipase ([1]; 30 mg/kg oral): 19.4% | enhancement of serum HDL-cholesterol ([1]; 30 mg/kg oral): 17.8% | lowering of LDL-cholesterol (LDL-C) level ([1]; 30 mg/kg oral): 32.3% | lowering of non-esterified fatty acid (NEFA) ([1]; 30 mg/kg oral): 12.3% | lowering of serum glycerol level ([1]; 30 mg/kg oral): 25.7% | lowering of serum triglycerides level (TG) ([1]; 30 mg/kg oral): 32.8% | lowering of total cholesterol (T-Chol) level ([1]; 30 mg/kg oral): 23.1% | Chol, change vs HFD control (in parentheses) ([1]; 30 mg/kg p.o., 7 days): (−23.1)* % | Glycerol, change vs HFD control (in parentheses) ([1]; 30 mg/kg p.o., 7 days): (−25.7) % | HDL-C, change vs HFD control (in parentheses) ([1]; 30 mg/kg p.o., 7 days): (+17.8) % | LDL-C, change vs HFD control (in parentheses) ([1]; 30 mg/kg p.o., 7 days): (−32.3)* % | Lipoprotein lipase, change vs HFD control (in parentheses) ([1]; 30 mg/kg p.o., 7 days): (+19.4) % | NEFA, change vs HFD control (in parentheses) ([1]; 30 mg/kg p.o., 7 days): (−12.3) % | TG, change vs HFD control (in parentheses) ([1]; 30 mg/kg p.o., 7 days): (−32.8)* % | Chol ([1]; 30 mg/kg p.o., 7 days, serum): 257.2 ± 22.4 mg/dL | Glycerol ([1]; 30 mg/kg p.o., 7 days, serum): 1004.9 ± 40.2 µmol/L | HDL-C ([1]; 30 mg/kg p.o., 7 days, serum): 168.2 ± 8.90 mg/dL | LDL-C ([1]; 30 mg/kg p.o., 7 days, serum): 179.6 ± 13.2 mg/dL | Lipoprotein lipase ([1]; 30 mg/kg p.o., 7 days, serum): 36.3 ± 3.90 U/L | NEFA ([1]; 30 mg/kg p.o., 7 days, serum): 5.70 ± 0.42 mmol/L | TG ([1]; 30 mg/kg p.o., 7 days, serum): 501.8 ± 45.7 mg/dL | effect on body weight, in words ([1]; vs control group, FIG. 10): effectively inhibited the rise in body weight | stability in simulated gastric fluid (SGF) ([2]; SGF): low stability | stability in simulated intestinal fluid (SIF) ([2]; SIF): good stability | stability after extraction from plasma [3]: stable | absorption, in words ([4]; oral dosing): slow absorption | time at which plasma concentrations peaked post-dose ([4]; oral dosing): ≥ 10 h | AUC(0-t) ([4]; plasma, intravenous route): 826 ± 88.7 ng·h/mL | C0 ([4]; plasma, intravenous route): 166 ± 90.2 ng/mL | MRT ([4]; plasma, intravenous route): 25.3 ± 1.99 h | clearance ([4]; plasma, intravenous route): 206 mL/min/kg | half-life ([4]; plasma, intravenous route, read-out: T1/2 (converted)): 15.4 ± 1.25 h | Vd ([4]; plasma, intravenous route, read-out: Vz): 268 ± 11.3 | AUC(0-inf) ([4]; plasma, oral route): 1210 ± 166 ng·h/mL | CL/F ([4]; plasma, oral route): 603 mL/min/kg | Cmax ([4]; plasma, oral route): 40.4 ± 7.03 ng/mL | MRT ([4]; plasma, oral route): 23.2 ± 1.31 h | bioavailability ([4]; plasma, oral route): 33.6% | half-life ([4]; plasma, oral route, read-out: T1/2 (converted)): 14.3 ± 0.95 h | Vd/F ([4]; plasma, oral route, read-out: Vz/F): 739 ± 87.1 | half-life ([4]; plasma, route not stated, read-out: elimination half-life): > 14 h | clearance, in words [4]: large clearance | bio-availability, in words ([4]; in vivo): good bio-availability | % Antihyperglycaemic activity (OGTT improvement) (db/+ mice; 5 mg/kg): 10.5% | % Antihyperglycaemic activity (OGTT improvement) (db/+ mice; 10 mg/kg): 19.8% | % Antihyperglycaemic activity (OGTT improvement) (db/+ mice; 20 mg/kg): 24.5% | % Antihyperglycaemic activity (OGTT improvement) (db/+ mice; 30 mg/kg): 28.9% | % Antihyperglycaemic activity (OGTT improvement) (db/+ mice; 50 mg/kg): 35.9% | Blood glucose level, 0 min post sucrose load ([5]; 100 mg/kg): 222.0 ± 7.9 mg/dL | Blood glucose level, 30 min post sucrose load ([5]; 100 mg/kg): 452.6 ± 18.2 mg/dL | Blood glucose level, 60 min post sucrose load ([5]; 100 mg/kg): 524.8 ± 11.2 mg/dL | Blood glucose level, 90 min post sucrose load ([5]; 100 mg/kg): 468.2 ± 12.6 mg/dL | Blood glucose level, 120 min post sucrose load ([5]; 100 mg/kg): 412.6 ± 5.8 mg/dL | Blood glucose level, 180 min post sucrose load ([5]; 100 mg/kg): 345.2 ± 9.2 mg/dL | Blood glucose level, 240 min post sucrose load ([5]; 100 mg/kg): 311.6 ± 3.7 mg/dL | Blood glucose level, 300 min post sucrose load ([5]; 100 mg/kg): 264.8 ± 8.7 mg/dL | Blood glucose level, 1440 min post sucrose load ([5]; 100 mg/kg): 414.8 ± 8.3 mg/dL | % Antihyperglycemic activity STZ-S 0-5 hr ([5]; Table 2): 28.9% | % Antihyperglycemic activity STZ-S 0-24 hr ([5]; Table 2): 25.2%
